Source: patent publication US10265321B2, “Uses of salt-inducible kinase (SIK) inhibitors” (Dana-Farber Cancer Institute, Inc., priority 2014, dated 2019)

Target: T1, SIK1 (Homo sapiens, UniProt P57059)
T1 construct: made in house
Test: Protein kinase assay ([γ-32P] ATP, phosphocellulose paper) against SIK1
Format: biochemical
Conditions: read-out: Enzyme Inhibition IC50 SIK1
Experimental: Bone marrow-derived DCs were differentiated from C57BL/6 bone marrow in the presence of GM-CSF-conditioned media. CD11c^+ CX3CR1^hi myeloid cells and CD11c^+ CX3CR1^− DCs were isolated from the small intestine lamina propria of Cx3cr1^eGFP/+ mice (12). Detection of cell-surface Thy1.1 expression on BMDCs from 10BiT reporter mice was conducted as described previously (24). Cell viability was estimated by change in total cellular ATP levels using CellTiterGlo assays (Promega). Preparation of recombinant SIK proteins and IC50 measurements were conducted as described previously (21). […] The concentrations of TNF-α, IL-6, IL-10, IL-12p40, IL-1β and RANTES in culture supernatants were detected using a FlexSet Cytometric bead array (BD Biosciences). Alternatively, IL-10 secretion was quantified using ELISA (BD Biosciences) or AlphaLISA (PerkinElmer) assays. […]
In another set of experiments, the activities of the SIK inhibitors described herein against SIK were determined according to the methods reported in Hastie et al., Nature Protocols, 2006, 1, 968-971. […]
The specific activity of the [γ-^32P] […] To measure the concentration of ATP, a sample of such a stock solution was diluted to 20 μM, and the absorbance of the diluted sample was measured at 259 nm. The absorbance of a 20-μM stock solution of ATP at 259 nm was about 0.31. […] ATP to produce a radioactivity of 1×10^5 to 1×10^6 c.p.m. per nmol. […]

T1 sequence (P57059 whole entry): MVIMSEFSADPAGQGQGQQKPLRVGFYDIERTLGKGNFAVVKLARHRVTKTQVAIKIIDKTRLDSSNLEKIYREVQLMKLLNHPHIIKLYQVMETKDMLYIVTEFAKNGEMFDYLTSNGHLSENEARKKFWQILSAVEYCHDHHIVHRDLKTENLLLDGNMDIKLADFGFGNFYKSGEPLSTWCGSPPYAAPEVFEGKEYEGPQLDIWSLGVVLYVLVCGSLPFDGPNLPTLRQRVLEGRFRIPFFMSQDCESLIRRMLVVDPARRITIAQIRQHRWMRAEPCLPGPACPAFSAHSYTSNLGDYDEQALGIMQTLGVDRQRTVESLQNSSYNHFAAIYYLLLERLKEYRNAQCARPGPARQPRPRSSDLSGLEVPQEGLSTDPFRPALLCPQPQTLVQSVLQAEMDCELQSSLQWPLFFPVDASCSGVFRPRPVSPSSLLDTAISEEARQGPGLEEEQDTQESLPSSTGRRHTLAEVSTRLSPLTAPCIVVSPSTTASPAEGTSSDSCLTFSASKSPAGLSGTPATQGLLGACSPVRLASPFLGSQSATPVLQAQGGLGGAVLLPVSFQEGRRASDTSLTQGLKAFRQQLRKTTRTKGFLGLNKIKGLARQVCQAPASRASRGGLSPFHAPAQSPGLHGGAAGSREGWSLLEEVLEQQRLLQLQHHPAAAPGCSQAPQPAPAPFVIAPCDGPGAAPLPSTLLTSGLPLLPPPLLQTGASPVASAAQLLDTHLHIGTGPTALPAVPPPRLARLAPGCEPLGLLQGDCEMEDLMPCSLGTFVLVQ

IC50: 36.2 nM
SMILES: CCN1CCN(c2ccc(Nc3cc(-n4ccnc4Nc4c(C)cccc4C)ncn3)cc2)CC1 [II-1, 6-(2-((2,6-dimethylphenyl)amino)-1H-imidazol-1-yl)-N-(4-(4-ethylpiperazin-1-yl)phenyl)pyrimidin-4-amine]
